The source of these data is patent publication US20120288482A1, “THERAPEUTIC AGENT (Y-39983) FOR CORNEAL ENDOTHELIAL DYSFUNCTION” (priority 2009, published 2012).

Assay [1] concerns cultured corneal endothelial cells. To be noted: cited from earlier work.
The test system of assay [2] is corneal endothelial loss model. Put plainly: Rabbit corneal endothelial loss model, high concentration instillation (Example 2). The format is in vivo. Conditions: 0.05 w/v % (1.58 mM) instillation, 6 times a day, 2 days.
Assay [3] relates to rabbit corneal endothelial cells. In words: Wound healing model of cultured corneal endothelial cells (Example 5). The format is cell-based. As to the method: In this Example, rabbit corneal endothelial cells prepared in the same manner as in Example 4 were used. In this Example, moreover, test substances and control substance prepared in the same manner as in Example 4 were used. Collected rabbit corneal endothelial cells were diluted with a culture medium (about 4 ml, DMEM (Invitrogen, Cat. #12320-032), 10% FBS, 2 ng/mL bFGF (Invitrogen, Cat. #13256-029) and 1% penicillin/streptomycin (Invitrogen, Cat. #15070-063)), and seeded at a division ratio of 1:4 by 2 ml per well in a 6 well plate (Corning Incorporated, Cat. #3516). The cells were incubated to confluent under conditions of 37° C. and 5% CO2. Wound was created in the confluent cells using 1000 μL chip (Molecular BioProducts, 2279). Then, each medicament was added to the culture medium to a final concentration of 0.09, 0.32, 0.95, 3.16 and 9.47 μM compound (I), 10 μM Y-27632 and 10 μM Fasudil. As a control, DMSO was added to a final concentration of 0.04%. At 6 hours, 12 hours and 24 hours after addition of each medicament, the width of the wound was photographed over time, and the width of the wound was evaluated by image analysis.

Assay [4] has the same test system. Put plainly: Adhesion of cultured corneal endothelial cells to culture plate (Example 6). The class given is cell-based. To be noted: 3 hours after seeding. As to the method: In this Example, rabbit corneal endothelial cells prepared in the same manner as in Example 4 were used. In this Example, moreover, test substances and control substance prepared in the same manner as in Example 4 were used. The collected rabbit corneal endothelial cells were diluted, and a culture medium (about 4 ml, DMEM (Invitrogen, Cat. #12320-032), 10% FBS, 2 ng/mL bFGF (Invitrogen, Cat. #13256-029) and 1% penicillin/streptomycin (Invitrogen, Cat. #15070-063)) was added to the cells. Then, each medicament was added to the culture medium to final concentrations of 0.09, 0.32, 0.95, 3.16 and 9.47 μM compound (I), 10 μM Y-27632 and 10 μM Fasudil. As a control, DMSO was added to a final concentration of 0.04%. These cells were seeded in a 96 well plate (Corning Incorporated, Cat. #3595) at 1000 cells/well. After 3 hours from the seeding, suspended cells were removed, and adhered cells were counted by CellTiter-Glo (registered trade mark) Luminescent Cell Viability Assay (promega Cat. #G7572).

On to `C[C@@H](N)[C@H]1CC[C@H](C(=O)Nc2ccncc2)CC1` [Y-27632, reference compound], for which the cell adhesion entry in assay [1] is reported as “promoting cell adhesion”.
As for `C[C@@H](N)c1ccc(C(=O)Nc2ccnc3[nH]ccc23)cc1.Cl` [compound (I), (R)-(+)-N-(1H-pyrrolo[2,3-b]pyridin-4-yl)-4-(1-aminoethyl)benzamide monohydrochloride], the “effect in rabbit corneal endothelial loss model” value in assay [2] was “effect can be confirmed”. For the same molecule, the wound healing effect result in assay [3] (0.95 μM, student's t-test) is recorded as “showed a wound healing effect from the early stages of the addition”. The wound width result is recorded as “no statistically significant difference from the control group” in assay [3] (9.47 μM, versus control) and “significantly decreased” in assay [3] (0.09-3.16 μM, 24 hours after addition, Dunnett's test). Moreover, the “concentration showing a wound healing effect” value in assay [3] (in vitro wound healing model, Example 5) lay within 0.09 to 3.16 µM. The figures for the “number of adherent cells” value in assay [4] (0.32 μM) and in assay [4] (all addition groups (0.09-9.47 μM)) were “almost the same level as 10 μM Y-27632” and “increased the number of adherent cells”, respectively. Further, the “concentration at which the number of adherent cells reached plateau” value in assay [4] is on record as “not less than 0.32 μM”.
